{
  "source": "paper PMC10818749",
  "about": "“Toxicity Studies of Cardiac-Targeting Peptide Reveal a Robust Safety Profile” (Pharmaceutics, 2024)",
  "key": {"[1]": {"target": "KvLQT1/minK (Homo sapiens, UniProt P15382+P51787)", "sequence (P51787 whole entry)": "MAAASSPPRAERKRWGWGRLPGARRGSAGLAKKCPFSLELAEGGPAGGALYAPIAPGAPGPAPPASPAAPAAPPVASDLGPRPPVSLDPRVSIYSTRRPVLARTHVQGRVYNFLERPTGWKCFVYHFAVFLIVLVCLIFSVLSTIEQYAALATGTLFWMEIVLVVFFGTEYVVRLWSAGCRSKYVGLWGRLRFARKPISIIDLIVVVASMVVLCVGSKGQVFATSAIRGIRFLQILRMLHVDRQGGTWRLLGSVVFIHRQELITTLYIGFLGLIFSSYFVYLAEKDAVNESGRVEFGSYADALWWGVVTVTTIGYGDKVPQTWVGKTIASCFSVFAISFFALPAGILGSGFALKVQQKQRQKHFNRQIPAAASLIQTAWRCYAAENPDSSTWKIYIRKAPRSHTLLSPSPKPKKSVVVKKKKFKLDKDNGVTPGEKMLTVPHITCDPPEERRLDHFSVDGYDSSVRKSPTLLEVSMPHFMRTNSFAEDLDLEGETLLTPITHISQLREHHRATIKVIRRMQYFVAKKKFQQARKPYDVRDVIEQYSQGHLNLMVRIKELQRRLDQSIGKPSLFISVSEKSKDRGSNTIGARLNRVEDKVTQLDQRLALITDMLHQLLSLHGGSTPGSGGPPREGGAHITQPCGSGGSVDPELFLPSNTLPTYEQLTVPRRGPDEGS", "test": "KvLQT1/minK ion channel assay", "assay_type": "cell-based", "details": "SAFETYscan ion channel assay, up to 30 µM", "method": "Ion Channel Assays: Cell lines were grown, plated, and loaded with 1× loading buffer containing 1× dye and 2.5 mM freshly prepared probenecid. Assays were performed, and activity was measured using a FLIPR Tetra. Percent of activation and percent of inhibition were calculated to determine agonist and antagonist activity, respectively. […]\nThe FLIPR Potassium Assay Kit from Molecular Devices is used. It exploits the permeability of thallium ions (Tl+) through both voltage-and ligand-gated potassium (K+) channels. A novel, highly-sensiti ve\nTl+ indicator dye is utilized which produces a bright fluorescent signal upon the binding to Tl+ conducted through potassium chan-nels. […]\nKINOMEscan® Assay fluorescence for improved signal/noise ratio.\nThe KINOMEscan screening platform employs a novel and propri- Membrane Potential Assay etary active site-directed competition binding assay to quantitatively The FLIPR® Membrane Potential Assay Kit is used which utilizes a pro-measure interactions between test compounds and the kinases. prietary fluorescent indicator dye in combination with a quencher to This robust and reliable assay technology affords investigators the reflect real-time membrane potential changes associated with ion ability to extensively annotate compounds with accurate, precise channel activation and ion transporter proteins. […]"}, "[2]": {"target": "T1, COX1 (Homo sapiens, UniProt P23219)", "T1 construct": "purchased BPS Bioscience", "T1 sequence (P23219 24-599)": "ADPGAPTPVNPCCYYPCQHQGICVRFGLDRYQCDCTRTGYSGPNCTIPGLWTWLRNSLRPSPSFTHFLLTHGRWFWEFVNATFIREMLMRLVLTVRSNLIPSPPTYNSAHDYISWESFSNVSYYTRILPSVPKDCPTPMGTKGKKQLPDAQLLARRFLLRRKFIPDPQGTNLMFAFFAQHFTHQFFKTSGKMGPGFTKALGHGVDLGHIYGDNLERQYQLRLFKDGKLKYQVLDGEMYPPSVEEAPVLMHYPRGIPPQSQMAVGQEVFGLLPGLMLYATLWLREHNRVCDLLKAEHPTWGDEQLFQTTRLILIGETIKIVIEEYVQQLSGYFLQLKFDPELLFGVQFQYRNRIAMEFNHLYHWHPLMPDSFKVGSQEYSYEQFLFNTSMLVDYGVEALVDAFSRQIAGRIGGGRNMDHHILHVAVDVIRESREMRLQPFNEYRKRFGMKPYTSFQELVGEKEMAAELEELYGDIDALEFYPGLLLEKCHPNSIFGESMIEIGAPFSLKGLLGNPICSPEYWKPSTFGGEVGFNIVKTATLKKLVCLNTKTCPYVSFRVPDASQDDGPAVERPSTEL", "test": "COX1 enzymatic assay", "assay_type": "biochemical", "details": "up to 30 µM", "method": "Enzymatic Assays: AChE, COX1, COX2, MAOA, PDE3A, and PDE4D2 activity assays were performed to determine CTP effects on each individual enzyme. Fluorescence was read using a PerkinElmer Envision, and percentage inhibition and compound activity calculated. […]\nin complementation with EA generating a unit of active β-gal and based assay for the detection of dopamine, norepinephrine or sero-production of a chemiluminescent signal upon the addition of Path- tonin transporter activity in cells expressing these transporters. The Hunter detection reagents. kit employs a fluorescent substrate that mimics the biogenic amine neurotransmitters that are taken into the cell through these specific transporters, resulting in increased intracellular fluorescence inten-sity. […]\nKINOMEscan® Assay fluorescence for improved signal/noise ratio. […]\nCompounds that bind the kinase active site and directly (sterically) be monitored within a single experiment. or indirectly (allosterically) prevent kinase binding to the immobi-lized ligand, will reduce the amount of kinase captured on the solid Calcium Assay […]\nkinase have no effect on the amount of kinase captured on the of changes in intracellular calcium. […] Upon stimulation, a quantitative, precise and ultra-sensitive qPCR method that detects the receptor signals release of intracellular calcium, which results in the associated DNA label (D). […]"}, "[3]": {"target": "HEK-Nav1.5 (Peak) (Homo sapiens, UniProt Q14524)", "sequence (Q14524 whole entry)": "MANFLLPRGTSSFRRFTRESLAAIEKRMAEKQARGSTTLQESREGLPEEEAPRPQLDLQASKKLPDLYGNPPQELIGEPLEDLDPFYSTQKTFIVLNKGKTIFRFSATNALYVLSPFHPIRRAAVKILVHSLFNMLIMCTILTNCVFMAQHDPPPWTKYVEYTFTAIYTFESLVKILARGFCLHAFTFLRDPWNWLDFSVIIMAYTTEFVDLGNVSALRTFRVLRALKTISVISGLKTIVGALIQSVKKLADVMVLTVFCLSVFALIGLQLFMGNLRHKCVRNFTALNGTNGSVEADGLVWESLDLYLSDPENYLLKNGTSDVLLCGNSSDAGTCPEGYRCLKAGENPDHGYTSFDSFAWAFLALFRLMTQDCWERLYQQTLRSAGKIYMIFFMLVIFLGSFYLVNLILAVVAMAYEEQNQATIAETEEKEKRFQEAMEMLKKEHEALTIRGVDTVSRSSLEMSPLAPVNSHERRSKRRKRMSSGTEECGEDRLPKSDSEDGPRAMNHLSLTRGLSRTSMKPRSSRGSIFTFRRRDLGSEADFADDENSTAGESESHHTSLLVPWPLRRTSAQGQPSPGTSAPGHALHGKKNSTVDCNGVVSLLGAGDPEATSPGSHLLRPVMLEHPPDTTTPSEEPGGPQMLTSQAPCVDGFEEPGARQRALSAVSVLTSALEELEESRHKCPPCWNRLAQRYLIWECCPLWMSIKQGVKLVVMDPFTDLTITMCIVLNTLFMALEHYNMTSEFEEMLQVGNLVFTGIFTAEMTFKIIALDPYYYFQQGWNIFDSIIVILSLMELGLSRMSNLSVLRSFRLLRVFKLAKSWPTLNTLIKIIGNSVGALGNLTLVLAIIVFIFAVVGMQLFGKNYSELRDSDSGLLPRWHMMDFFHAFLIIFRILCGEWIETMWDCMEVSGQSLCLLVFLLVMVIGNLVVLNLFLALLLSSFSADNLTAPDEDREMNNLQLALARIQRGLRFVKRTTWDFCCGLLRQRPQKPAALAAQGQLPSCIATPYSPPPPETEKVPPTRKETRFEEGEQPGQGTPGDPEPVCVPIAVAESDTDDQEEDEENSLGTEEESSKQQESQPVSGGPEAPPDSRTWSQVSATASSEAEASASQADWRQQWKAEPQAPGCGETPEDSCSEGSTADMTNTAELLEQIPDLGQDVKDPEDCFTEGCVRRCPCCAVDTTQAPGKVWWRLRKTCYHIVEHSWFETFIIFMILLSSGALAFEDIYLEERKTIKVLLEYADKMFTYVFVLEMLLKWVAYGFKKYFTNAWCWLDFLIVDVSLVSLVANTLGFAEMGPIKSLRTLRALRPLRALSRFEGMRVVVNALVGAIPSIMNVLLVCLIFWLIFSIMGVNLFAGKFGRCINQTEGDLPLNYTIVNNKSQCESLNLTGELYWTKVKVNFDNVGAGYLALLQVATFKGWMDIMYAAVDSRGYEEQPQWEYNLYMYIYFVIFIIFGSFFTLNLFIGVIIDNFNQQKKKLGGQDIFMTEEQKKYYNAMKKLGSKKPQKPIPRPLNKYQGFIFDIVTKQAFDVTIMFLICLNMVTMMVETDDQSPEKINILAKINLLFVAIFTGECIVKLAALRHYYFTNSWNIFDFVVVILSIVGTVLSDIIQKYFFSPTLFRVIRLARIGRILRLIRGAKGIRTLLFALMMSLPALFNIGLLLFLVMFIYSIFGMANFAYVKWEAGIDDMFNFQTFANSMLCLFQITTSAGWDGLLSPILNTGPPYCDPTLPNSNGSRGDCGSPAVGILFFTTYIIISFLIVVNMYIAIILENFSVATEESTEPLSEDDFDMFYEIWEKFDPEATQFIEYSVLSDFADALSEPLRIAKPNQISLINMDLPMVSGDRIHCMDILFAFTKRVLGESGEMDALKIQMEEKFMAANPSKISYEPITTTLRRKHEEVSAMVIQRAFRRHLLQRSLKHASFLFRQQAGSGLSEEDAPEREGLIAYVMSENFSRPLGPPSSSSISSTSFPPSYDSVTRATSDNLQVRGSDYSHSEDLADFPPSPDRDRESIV", "test": "hNav1.5 (Peak) Sodium Channel Assay - Qube APC", "details": "CTP 0.1 to 30 µM; HEK cells; peak current, step to -15mV; 0.1% Pluronic F-68"}},
  "note": "Ends that are not written are not given here.",
  "data": [
    {"sequence": "APWHLSSQYSRT [CTP]", "values": [
      {"measurement": "blocking or activation", "setting": "[1]", "result": "no significant blocking or activation"},
      {"measurement": "opening action", "setting": "[1]", "result": "nor any significant opening action"},
      {"measurement": "inhibition", "setting": "[2]", "result": "some inhibition of COX1 was noted, although it did not reach the set significance threshold"},
      {"measurement": "Estimated IC50", "setting": "[3]", "result": "N/C (Not calculable, inhibition >25% was not observed.)"}
    ]}
  ]
}
